Test systems include 786-0; CAKI-1; HL-60; HOP-62; MCF7; MDA-N; Malme-3M; NCI-H226; NCI-H460; NCI-H522; SF-268; SF-295; SK-MEL-28; SK-MEL-5; SN12C; T47D; TK-10; UACC-257; UACC-62; UO-31.
What all share (assay): NCI anticancer screen, dose series, 48 h

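Cultured in 96-well plates, cells were exposed to test compound for 48 hours across five concentrations. GI50: concentration for 50% inhibition of growth.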 The source made the active and inactive calls. Cut-off read from the data, not from the text of the source: active = GI50 up to about 1.1 µM and inactive = higher.

For `Cc1cc(C)c2c(=O)cc(-c3ccccc3)[nH]c2c1`, the GI50 is 2.07 µM (inactive) in the test on 786-0; 3.29 µM (inactive) in the test on CAKI-1; 0.479 µM (active) with HL-60; 5.14 µM (inactive) with HOP-62; 3.01 µM (inactive) in the test on MCF7; 0.284 µM (active) in the test with MDA-N. The GI50 is 2.71 µM (inactive) with Malme-3M; 9.66 µM (inactive) in the test with NCI-H226; 1.92 µM (inactive) in the test on NCI-H460; 0.755 µM (active) with NCI-H522; 7.82 µM (inactive) in the test with SF-268; 3.63 µM (inactive) with SF-295. Further, the GI50 was 2.52 µM (inactive) in the test with SK-MEL-28; 1.3 µM (inactive) with SK-MEL-5; 5.25 µM (inactive) with SN12C; 12.5 µM (inactive) in the test on T47D; 7.05 µM (inactive) in the test with TK-10; 21.7 µM (inactive) in the test on UACC-257. The GI50 with UACC-62 was 1.6 µM (inactive); in the test with UO-31, 9.46 µM (inactive).
On to `O=c1oc2ccccc2cc1-c1nc2ccccc2c(=O)[nH]1`, for which the GI50 was > 100 µM (inactive) in the test on 786-0; > 100 µM (inactive) with CAKI-1; 21.9 µM (inactive) in the test on HL-60; > 100 µM (inactive) with HOP-62; 12 µM (inactive) with MCF7; > 100 µM (inactive) in the test with MDA-N. For the same molecule, the GI50 in the test on Malme-3M was > 100 µM (inactive); in the test with NCI-H226, > 100 µM (inactive); in the test on NCI-H460, > 100 µM (inactive); with NCI-H522 it was > 100 µM (inactive); with SF-268, > 100 µM (inactive); in the test on SF-295, 54 µM (inactive). The GI50 in the test on SK-MEL-28, in the test with SK-MEL-5, with SN12C, in the test on T47D, in the test with TK-10 and in the test on UACC-257 was > 100 µM (inactive) throughout. Also, the GI50 with UACC-62 and with UO-31 was > 100 µM (inactive) in each case.
Consider `O=C(CCCc1ccccn1)c1ccccc1`, for which the GI50 with 786-0, in the test with CAKI-1, in the test with HL-60, with HOP-62, with MCF7 and in the test on MDA-N was > 100 µM (inactive) in each case. In addition, the GI50 in the test with Malme-3M, in the test with NCI-H226, in the test on NCI-H460, with NCI-H522, in the test on SF-268 and in the test on SF-295 was > 100 µM (inactive) in each case. The GI50 with SK-MEL-28, with SK-MEL-5, in the test on SN12C, in the test with T47D, with TK-10 and in the test on UACC-257 was > 100 µM (inactive) throughout. Further, the GI50 in the test on UACC-62 and in the test with UO-31 was > 100 µM (inactive) each time.
Turning to `C/C(=C/CC[C@]1(CO)CC[C@]2(CO)[C@H](CC[C@@H]3[C@@]4(C)CC[C@H](OC5OCC(O)C(O)C5OC5OC(CO)C(O)C(O)C5O)C(C)(C)[C@@H]4CC[C@]32C)[C@H]1O)CO` (some centres undefined), the GI50 in the test on 786-0, in the test on CAKI-1, in the test with HL-60, in the test on HOP-62, with MCF7 and in the test with MDA-N was > 100 µM (inactive) each time. Besides, the GI50 in the test on Malme-3M is 92.3 µM (inactive); in the test on NCI-H226, > 100 µM (inactive); in the test on NCI-H460, > 100 µM (inactive); with NCI-H522, > 100 µM (inactive); in the test with SF-268, > 100 µM (inactive); in the test with SF-295, > 100 µM (inactive). In addition, the GI50 with SK-MEL-28, in the test on SK-MEL-5, with SN12C, with T47D, with TK-10 and in the test with UACC-257 was > 100 µM (inactive) in each case. Moreover, the GI50 in the test with UACC-62 and in the test on UO-31 was > 100 µM (inactive) throughout.
With `CC(CC(=O)CO[C@H]1[C@H](O)[C@@H](O)[C@@H](O)[C@@H]2NC(=O)c3c(cc4c(c3O)OCO4)[C@H]21)OC1OC(CO)C(O)C(O)C1O` (some centres undefined), the GI50 is 0.451 µM (active) with 786-0; 0.857 µM (active) in the test on CAKI-1; 0.372 µM (active) with HL-60; 0.366 µM (active) in the test on HOP-62; 0.283 µM (active) in the test with MCF7; 0.508 µM (active) with MDA-N. The GI50 in the test with Malme-3M was 0.488 µM (active); in the test on NCI-H226, 0.522 µM (active); with NCI-H460, 0.432 µM (active); in the test with NCI-H522 it was 0.311 µM (active); in the test on SF-268, 0.367 µM (active); with SF-295, 1.12 µM (active). In addition, the GI50 in the test on SK-MEL-28 is 0.56 µM (active); with SK-MEL-5, 0.322 µM (active); in the test with SN12C, 0.322 µM (active); with T47D, 0.203 µM (active); with TK-10, 0.408 µM (active); with UACC-257 it was 0.594 µM (active). In addition, the GI50 in the test on UACC-62 was 0.733 µM (active); with UO-31 it was 1.38 µM (inactive).
Regarding `O=C1c2cc([N+](=O)[O-])cc3cc([N+](=O)[O-])cc(c23)C(=O)N1CCCNCCNCCCN1C(=O)c2cc([N+](=O)[O-])cc3cc([N+](=O)[O-])cc(c23)C1=O`, the GI50 in the test with 786-0 is 0.0879 µM (active); in the test on CAKI-1, 0.182 µM (active); in the test on HL-60, 0.0166 µM (active); with HOP-62, 0.185 µM (active); in the test on MCF7, 0.0695 µM (active); with MDA-N it was 0.752 µM (active). Also, the GI50 is 0.223 µM (active) with Malme-3M; 0.0641 µM (active) in the test on NCI-H226; 0.0169 µM (active) with NCI-H460; 0.0551 µM (active) in the test on NCI-H522; 0.0222 µM (active) with SF-268; 0.0462 µM (active) in the test on SF-295. For the same molecule, the GI50 in the test on SK-MEL-28 is 0.233 µM (active); in the test with SK-MEL-5, 0.287 µM (active); in the test with SN12C, 0.0366 µM (active); in the test on T47D, 0.587 µM (active); with TK-10, 1.19 µM (inactive); with UACC-257 it was 0.49 µM (active). Besides, the GI50 is 0.302 µM (active) with UACC-62 and 0.375 µM (active) with UO-31.
As for `CN1N=C(N)c2cn(C3OC(COP(=O)(O)O)C(O)C3O)c3ncnc1c23` (centres undefined), the GI50 in the test on 786-0 is 20.5 µM (inactive); in the test with CAKI-1, 1.18 µM (inactive); in the test with HL-60, 1.65 µM (inactive); in the test with HOP-62, 23.5 µM (inactive); with MCF7, 1.65 µM (inactive); with MDA-N, 38.4 µM (inactive). In addition, the GI50 is 136 µM (inactive) with Malme-3M; 7.41 µM (inactive) in the test on NCI-H226; 52.8 µM (inactive) in the test on NCI-H460; 2050 µM (inactive) in the test with NCI-H522; 55.6 µM (inactive) in the test with SF-268; 144 µM (inactive) with SF-295. The GI50 with SK-MEL-28 was 194 µM (inactive); with SK-MEL-5 it was 1080 µM (inactive); in the test on SN12C it was 4.24 µM (inactive); in the test with T47D, 0.5 µM (active); in the test on TK-10 it was 2.88 µM (inactive); in the test on UACC-257, 152 µM (inactive). Besides, the GI50 is 28.4 µM (inactive) in the test with UACC-62 and 4.97 µM (inactive) with UO-31.
Turning to `Cc1ccc(S(=O)(=O)N2C[C@@H]3CC[C@]4(CO[Si](C)(C)C(C)(C)C)N[C@@H](c5ccccc5)[C@H]2[C@H]34)cc1`, the GI50 in the test with 786-0 is 27.8 µM (inactive); in the test with CAKI-1, 27.2 µM (inactive); in the test on HL-60, 12.7 µM (inactive); with HOP-62, 44.2 µM (inactive); with MCF7, 28.6 µM (inactive); in the test with MDA-N, 29.2 µM (inactive). Also, the GI50 in the test on Malme-3M was 18.6 µM (inactive); with NCI-H226, 14.4 µM (inactive); in the test on NCI-H460 it was 26.1 µM (inactive); in the test on NCI-H522, 11.6 µM (inactive); in the test on SF-268, 45.7 µM (inactive); with SF-295, 24.9 µM (inactive). For the same molecule, the GI50 with SK-MEL-28 is > 100 µM (inactive); in the test with SK-MEL-5, 13.8 µM (inactive); in the test with SN12C, 19.6 µM (inactive); with T47D, 8.18 µM (inactive); in the test on TK-10, 38.5 µM (inactive); with UACC-257 it was 23.9 µM (inactive). The GI50 in the test on UACC-62 is 56.4 µM (inactive); in the test on UO-31, 33 µM (inactive).
In the case of `Cc1ccc(C(=N)Nc2ccccc2)cc1`, the GI50 is > 100 µM (inactive) with 786-0; > 100 µM (inactive) with CAKI-1; > 100 µM (inactive) with HL-60; > 100 µM (inactive) with HOP-62; 41.9 µM (inactive) in the test on MCF7; > 100 µM (inactive) in the test on MDA-N. The GI50 in the test with Malme-3M, in the test with NCI-H226, with NCI-H460, in the test on NCI-H522, with SF-268 and in the test with SF-295 was > 100 µM (inactive) each time. The GI50 in the test with SK-MEL-28 was > 100 µM (inactive); in the test with SK-MEL-5 it was 89.7 µM (inactive); in the test with SN12C it was > 100 µM (inactive); with T47D, > 100 µM (inactive); in the test on TK-10, > 100 µM (inactive); with UACC-257 it was 38 µM (inactive). Besides, the GI50 with UACC-62 and in the test with UO-31 was > 100 µM (inactive) each time.
As to `COc1ncc(/C=C2\OC(=O)c3ccccc32)c(OC)n1`, the GI50 in the test with 786-0 was 9.1 µM (inactive); with CAKI-1, 0.21 µM (active); with HL-60 it was > 100 µM (inactive); in the test with HOP-62, 12.1 µM (inactive); in the test on MCF7, 25.8 µM (inactive); in the test on MDA-N, 50 µM (inactive). The GI50 was 10.7 µM (inactive) with Malme-3M; 66.1 µM (inactive) in the test on NCI-H226; 17.9 µM (inactive) in the test with NCI-H460; 26.1 µM (inactive) in the test on NCI-H522; 32.6 µM (inactive) in the test with SF-268; 4.19 µM (inactive) in the test on SF-295. The GI50 in the test with SK-MEL-28 was 56.1 µM (inactive); in the test with SK-MEL-5, 9.95 µM (inactive); with SN12C, > 100 µM (inactive); with T47D, 23.6 µM (inactive); with TK-10 it was 16.2 µM (inactive); with UACC-257 it was 57.3 µM (inactive). In addition, in the test on UO-31, the GI50 is 12.9 µM (inactive).

(Values after ChEMBL document CHEMBL1201862, “PubChem BioAssay data set” (2004).)
